The results in this text go back to patent publication US8574551B2, “Compositions useful for reducing nephrotoxicity and methods of use thereof” (Verrow Pharmaceuticals, Inc., priority 2005, dated 2013).

The structures appear in SMILES notation.

Data set [1] concerns kidney. Kind of data set: Renal pathology in EAE mice after MTX or MTX+Captisol. Type of data set: in vivo, C57BL6 mice. To be noted: MTX 40 mg/kg single intravenous bolus, no Captisol. As for the experimental part: Injection volume were between 100-120 μl. […] Leukovorin, the active metabolite of folic acid, is typically given with methotrexate in anti-cancer chemotherapy to help protect normal cells. Mice were scored daily for disease severity and then sacrificed on day 10 of disease. Brain, kidney and spleen were formalin fixed. […] For light microscopic investigation, kidneys were fixed in 10% buffered formalin and processed routinely for paraffin embedding. Tissue sections of 5 micron meter were stained with hematoxylin and eosine and examined under Nikon coolpix light microscope. The severity of total kidney damage was evaluated by a semiquantitative measurement of damage as described. Each tissue section of the kidney was assessed for degeneration of glomerular structure, glomerular crowding and congestion, dilation of bowman space, degeneration of proximal and distal tubules, and dilation of renal tubules, vascular congestion, and inflammatory cell infiltration. For glomerular atrophy, glomeruli that contained more than 20 nuclei were scored “0”, and those containing less than 10 nuclei were scored “4.” Intermediate stages were 1, 2 and 3. Other criterion was scored on a 0-3 scale: 0=none; 1=mild; 2=moderate; 3=severe. […]

Data set [2] in a line: MTX-captisol solubility: rate of precipitation of MTX at pH 5.0 in presence and absence of captisol. Format: physicochemical. To be noted: for Amount of MTX in solution 1:25 dilution: diluted sample, pH 5.0, MTX added 0.91 mg/ml; for conc. of MTX (molarity of mtx): pH 5.0, Concentration of MTX added 0.002M. As for the experimental part:
Solubility studies were performed to determine whether Captisol could prevent the precipitation of MTX over a time period greater than transit time of MTX through the kidney (i.e., less than 2 minutes). Each solution was acidified with HCl, centrifuged and aliquots of the supernatant removed as a function of time, and the concentration of MTX in solution was measured spectrophometrically.

In data set [3] the test system is kidney. Kind of data set: Methotrexate induced nephrotoxicity model in mice, HPβCD. Format: in vivo, C57BL/6 mice. To be noted: normal mice; MTX 80 mg/kg single IV injection alone; 24 hrs. On the procedure:
To determine the protective effect of other cyclodextrin molecules, 2-hydroxypropyl β-cyclodextrin (HPβCD) was evaluated. Female C57BL/6 mice were injected intravenously with a single dose of methotrexate 80 mg/kg, IV, or methotrexate+HPβCD, IV, at methotrexate to HPβCD molar ratios of 1:1 and 1:0.5. The animals were sacrificed after 24 hrs. The development of glomerular and tubulointerstitial injury after methotrexate and protection by methotrexate+HPβCD was evaluated by means of assessment of renal histology by light microscopy. Leukovorin was given 4 hrs and after 18 hrs. Urine was not alkalinized.
Paraffin sections of […] were cut and stained with H&E and periodic acid Schiff (PAS). They were examined by light microscopy and scored in a blinded fashion. Five arbitratary fields at 40× magnification in each sections was assessed for the parameters, and scored according to the criteria, set forth in Example 7.

The subject of data set [4] is kidney. Kind of data set: Captisol-MTX time studies, kidney histopathology at 24 hrs, 48 hrs, 1 week. Format: in vivo, mice. As for the experimental part: For light microscopic investigation, kidneys were fixed in 10% buffered formalin and processed routinely for paraffin embedding. Tissue sections of 5 micron meter were stained with hematoxylin and eosine and examined under a Nikon coolpix light microscope, photography was done with a Nikon Coolpix camera. The severity of total kidney damage was evaluated by a semiquantitative measurement of damage as described below. Each tissue section of the kidney was assessed for degeneration of glomerular structure, glomerular crowding and congestion, dilation of bowman space, degeneration of proximal and distal tubules, and dilation of renal tubules, vascular congestion, and inflammatory cell infiltration. For glomerular atrophy, glomeruli that contained more than 20 nuclei were scored “0”, and those containing less than 10 nuclei were scored “4.” Intermediate stages were 1, 2 and 3. Other criterion was scored on a 0-3 scale: 0=none; 1=mild; 2=moderate; and 3=severe. The microscopic score of each tissue was calculated as the sum of the scores given to each criterion and at least 100 nephrons (glomeruli plus surrounding tubules) were analyzed per section. See, e.g., Bhat et al., PNAS (2003) 100(7); Sener et al., Cell Biol Toxicol (2006) 22:[…].

In data set [5] the test system is kidney. Kind of data set: Histopathological changes in the kidney after single bolus intravenous MTX with or without captisol at different molar ratios. Type of data set: in vivo. The following applies: normal mice, 48 hours. As for the experimental part: A study of histopathological changes in the kidney after single bolus intravenous MTX with or without concurrent captisol at different molar ratios was performed.
MTX solutions were prepared as follows. Solution A (24 mg/ml (53 mM)) was prepared from stock solution of 25 mg/ml (Methotrexate from Bedford laboratories) in sterile PBS (total volume 6 mL). Solution B was prepared by diluting 3 ml of Solution A to 1:1.33 in PBS to obtain a working dilution of 18 mg/mL (39.6 mM), pH 7.4. Solution C was prepared by diluting 2 mL of solution A 1:2 to obtain a working dilution of 12 mg/mL (26.4 mM), pH 7.2.
MTX+Captisol solutions were prepared as follows. Solution D was made by adding 57.32 mg Captisol to an aliquot of 500 micro liter of solution A (molar ratio 1:1, neutral pH). […]
MTX and Captisol were administered to 8 groups of mice (Groups I-VIII; see Table 3) via tail vein by a single injection in a volume of 100-120 μL. […] Clinical symptoms, body weights were recorded. […]
Semi quantitative estimates of total kidney damage in mice treated with MTX 80 mg/kg, 120 mg/kg, and a combination of MTX+Captisol at MTX to Captisol molar ratio of 1:1 and 1:0.5, are shown in FIG. 4. […] Hematoxylin and eosin sections of paraffin embedded kidney were analyzed microscopically for extent of renal damage. Data is expressed as mean±SEM. […]

In the case of `CN(Cc1cnc2nc(N)nc(N)c2n1)c1ccc(C(=O)N[C@@H](CCC(=O)O)C(=O)O)cc1` [MTX, N-[4-[[(2,4-diamino-6pteridinyl)methyl]methylamino]benzoyl]-L-glutamicacid], the “kidney sections, morphological changes” value in data set [1] is “dilation of renal tubules and degeneration of proximal tubules”. The “Amount of MTX in solution 1:25 dilution” value in data set [2] (5 min after adding acid) stood at 3.449 µg/mL; in data set [2] (10 min after adding acid), 2.509 µg/mL; in data set [2] (15 min after adding acid) it was 3.177 µg/mL; in data set [2] (20 min after adding acid), 3.844 µg/mL; in data set [2] (30 min after adding acid) it was 3.807 µg/mL; in data set [2] (40 min after adding acid), 3.3 µg/mL. For the same compound, the “Amount of MTX in solution 1:25 dilution” value in data set [2] (50 min after adding acid) was found to be 3.412 µg/mL; in data set [2] (60 min after adding acid), 3.906 µg/mL. Further, the “conc. of MTX (molarity of mtx)” value came to 189.7 µM in data set [2] (5 min after adding acid); 138 µM in data set [2] (10 min after adding acid); 174.7 µM in data set [2] (15 min after adding acid); 211.4 µM in data set [2] (20 min after adding acid); 209.4 µM in data set [2] (30 min after adding acid); 181.5 µM in data set [2] (40 min after adding acid). The results for the “conc. of MTX (molarity of mtx)” value in data set [2] (50 min after adding acid) and in data set [2] (60 min after adding acid) were 187.6 µM and 214.8 µM, respectively. In addition, in data set [3], the renal histology entry was “significant histopathological changes in the kidney”. Besides, the “kidney histopathology (H&E)” value is “degeneration of glomerular structure and dilation of Bowman's space, degeneration of proximal and distal tubules and inflammatory cell infiltration” in data set [4] (MTX 160 mg/kg alone, 24 hours post injection); “degeneration of glomerular structure, dilation of Bowman's space, dilation of proximal and distal tubules, degeneration of proximal and distal tubules and inflammatory cell infiltration” in data set [4] (MTX 160 mg/kg i.v. alone, 48 hours post injection); “degeneration of proximal and distal tubules with occasional glomerular atrophy or crowding” in data set [4] (MTX 160 mg/kg single i.v. bolus alone, 1 week); “dilation of tubules, degenerative changes in the tubules, hypercellularity in the glomerulus and atypical collection of interstitial cells and convulated tubules” in data set [5] (MTX 80 mg/kg iv bolus alone); “glomerular atrophy, degeneration of basement membrane on bowman capsule, degenerative changes in the tubules, hypercellularity in the glomerulus and infiltration of mononuclear cells” in data set [5] (MTX 120 mg/kg IV alone). For the same compound, in data set [4] (normal mice, MTX 160 mg/kg single iv bolus, 24 and 48 hours), the “kidney tissue histopathological changes (FIG. 5)” value is on record as “extensive histopathological changes”.
